Laboratory results published in US20070219159A1, “CYCLODEXTRIN COMPOSITIONS AND METHODS OF TREATING VIRAL INFECTIONS” (priority 2002, published 2007).
Like-named read-outs stand apart in the source and are kept apart here.

Experiments:
[1] = test system: HSV-1 strain KOS1.1; format: cell-based
[2] = test system: dlsptk (an ACV-resistant, tk deletion mutant of HSV-1); format: cell-based; settings: MOI 10, 20 μM (4.5 μg/ml) ACV or 6.4 mg/ml β-CD for 24 hours
[3] = test system: Vero cells; experiment: Cell viability by LDH release assay; format: cell-based; settings: acyclovir 400 μg/ml, 24 and 48 hours, Vero cells
Method: FIG. 3 depicts the effects of ACV alone (400 μg/ml) and β-CD alone (8 mg/ml) on the viability of Vero cells as monitored by the LDH release assay after 24 hours of treatments (A); and after 48 hours of treatments (B). All data represents means+SD of two separate experiments.
Cell viability assay. Cell viability was determined fluorometrically by estimating the release of LDH into the media (Moran and Schnellman, 1996). LDH activity was based on the reduction of pyruvate to lactate. The concomitant oxidation of NADH results in a decrease in the fluorescence emission at 450 nm with excitation wavelength 355 nm, and the rate of disappearance of NADH is indicative of LDH activity.
To study the effects of formulations on viability of preformed monolayers, 3 to 4×10^6 Vero cells were added to 1× MEM-5% FBS in T75 flasks. […] Used media were replaced with 15 ml of treatment media, containing 5× MEM-FBS diluted to 1× with water (control), acyclovir stock (400 μg/ml), or β-CD stock (8 mg/ml in water). […]
Reaction solution was made fresh for each experiment by mixing 0.4 ml of 16.2 mM pyruvate with 10 ml of 0.2 mM NADH in phosphate buffer (pH 7.5). […] The amount of LDH calculated for either condition was then compared with and expressed as a percentage of the total LDH present.
Used media were replaced with 15 ml/flask or 2.5 ml/well of treatment media, containing 5× MEM-FBS diluted to 1× with water (control), and […]CD stock. […] Live cells are distinguished by the presence of intracellular esterase activity, as determined by the enzymatic conversion of calcein-AM (nonfluorescent) to calcein (green fluorescence). EthD-1 enters cells with damaged cell membranes and binds to nucleic acids producing red fluorescence to identify dead cells. […] For LDH assays, cells were trypsinized, resuspended in fresh 1× medium, kept at 37° C.-5% CO2 atmosphere, and total LDH present in cells and medium was determined after lysing the cells with 350 μM digitonin. The amount of LDH calculated for either condition was then compared with and expressed as a percentage of the total LDH present. […]

[4] = test system: HCV; experiment: In vitro anti-HCV assay in HCV RNA-replicating cell line AVA5; format: cell-based
Method: The antiviral activity of test compounds were assayed in the stably HCV RNA-replicating cell line. AVA5, derived by transfection of the human hepatoblastoma cell line, Huh^7 (Blight et al., 2000). Experimental drugs were added to dividing cultures once daily for three days. Media was changed with each addition of compound. Cultures generally started the assays at 50% confluence and reached confluence during the last day of treatment. HCV RNA and cellular β-actin RNA levels were assessed 24 hours after the last dose of compound using dot blot hybridization. Assays were conducted using a single dose of test compound (in triplicate cultures).
Both HCV and β-actin RNA levels in the treated cultures were expressed as a percentage of the mean levels of RNA detected in untreated cultures. β-actin RNA levels were used both as a measure of toxicity, and to normalize the amount of cellular RNA in each sample. A level of 30% or less HCV RNA (relative to control cultures) was considered to be a positive antiviral effect, and a level of 50% or less β-actin RNA (relative to control cultures) is considered to be a cytotoxic effect.
Dividing cultures of AVAB cells were treated once daily for three days (media was changed with each addition of compound) with 4 concentrations of test compounds (3 cultures per concentration). A total of 6 untreated control cultures, and triplicate cultures treated with 10, 3, and 1 IU/ml α-interferon (active antiviral with no cytotoxicity), and 100, 10, and 1 μM ribavir ([…]) served as controls. HCV RNA and cellular β-actin FNA levels were assessed 24 hours after the last dose of compound using dot blot hybridization. β-actin RNA levels were used to normalize the amount of cellular RNA in each sample.
Toxicity analyses were performed on separate plates from those used for the antiviral assays. Cells for the toxicity analyses were cultured and treated with test compounds with the same schedule and under identical culture conditions used for the antiviral evaluations. Each compound was tested at 4 concentrations, each in triplicate cultures. Uptake of neutral red dye was used to determine the relative level of toxicity 24 hours following the last treatment. The absorbance of internalized dye at […] (A510) was used for the quantitative analysis. Values in test cultures were compared to 9 cultures of untreated cells maintained on the same plate as the test cultures.
Assays similar to those described above were conducted.

[5] = test system: HSV-1; settings: in general 1000-fold less drug than Examples 1-6 and 10
[6] = test system: HSV-2; settings: in general 1000-fold less drug than Examples 1-6 and 10
[7] = test system: VZV
[8] = test system: EBV
[9] = test system: HCMV
[10] = test system: MCMV
[11] = test system: HHV-6
[12] = test system: HHV-7
[13] = test system: Flu A
[14] = test system: Flu B
[15] = test system: RSV
[16] = test system: PIV
[17] = test system: MV
[18] = test system: HRV
[19] = test system: Ad
[20] = test system: Resp syncytial
[21] = test system: Rhino
[22] = test system: Vaccinia
[23] = test system: Cowpox
[24] = test system: Measles
[25] = test system: VEE
[26] = test system: Punta Toro
[27] = test system: Pichinde
[28] = test system: Yellow fever
[29] = test system: West Nile; experiment: In vitro antiviral screening (Table 1), West Nile

| Compound | S.I. for HCV [4] | SI = CC50/EC50 [5] | SI = CC50/EC50 [6] | SI = CC50/EC50 [7] | SI = CC50/EC50 [9] | SI = CC50/EC50 [10] | SI = CC50/EC50 [11] | SI = CC50/EC50 [12] | SI = CC50/EC50 [13] | SI = CC50/EC50 [14] | SI = CC50/EC50 [15] | SI = CC50/EC50 [16] | SI = CC50/EC50 [17] | SI = CC50/EC50 [18] | SI = CC50/EC50 [19] | SI = CC50/EC50 [20] | SI = CC50/EC50 [21] | SI = CC50/EC50 [22] | SI = CC50/EC50 [23] | SI = CC50/EC50 [29] | also measured |
| --- | --- | --- | --- | --- | --- | --- | --- | --- | --- | --- | --- | --- | --- | --- | --- | --- | --- | --- | --- | --- | --- |
| Nc1nc2c(ncn2COCCO)c(=O)[nH]1 [ACV, acyclovir, reference compound] |  |  |  |  |  |  |  |  |  |  |  |  |  |  |  |  |  |  |  |  | reduction of KOS1.1 yield at 24 hours ([1]; 4.5 μg/ml ACV, MOI 10, post-infection treatment): 10^2 fold; yield of cell-free and cell-associated virus ([1]; 24 hours post-infection, MOI 50, BCD 7.2 mg/ml, ACV 400 μg/ml or both, pre, during and post infection treatment (FIG. 1)): markedly decreased; effect on yield of acyclovir-sensitive HSV KOS1.1 (FIG. 2) ([1]; MOI 10, 20 μM ACV or 6.4 mg/ml β-CD for 24 hours): able to lower the yield; effect on yield of acyclovir-resistant dlsptk virus (FIG. 2) [2]: no activity; effect on yield of acyclovir-resistant dlsptk virus (FIG. 2) ([2]; listed as acyclovir): not of the acyclovir -resistant mutant; drug-related cell killing [3]: no drug-related cell killing |
| OC[C@H]1O[C@@H]2O[C@H]3[C@H](O)[C@@H](O)[C@@H](O[C@H]4[C@H](O)[C@@H](O)[C@@H](O[C@H]5[C@H](O)[C@@H](O)[C@@H](O[C@H]6[C@H](O)[C@@H](O)[C@@H](O[C@H]7[C@H](O)[C@@H](O)[C@@H](O[C@H]8[C@H](O)[C@@H](O)[C@@H](O[C@H]9[C@H](O)[C@@H](O)[C@@H](O[C@H]1[C@H](O)[C@H]2O)O[C@@H]9CO)O[C@@H]8CO)O[C@@H]7CO)O[C@@H]6CO)O[C@@H]5CO)O[C@@H]4CO)O[C@@H]3CO [GCD, γ-cyclodextrin] | 1.04 | 0 | 0 | 0 | 0 | 0 | 0 | 0 | 0 | 0 | 0 | 0 | 0 | 0 | 0 | 0 | 0 | 0 | 0 | 0 | SI = CC50/EC50 [8]: 0; SI = CC50/EC50 [24]: 0; SI = CC50/EC50 [25]: 0; SI = CC50/EC50 [26]: 0; SI = CC50/EC50 [27]: 0; SI = CC50/EC50 [28]: 0 |
| CC(O)COC[C@H]1O[C@@H]2O[C@H]3[C@H](O)[C@@H](O)[C@@H](O[C@H]4[C@H](O)[C@@H](O)[C@@H](O[C@H]5[C@H](O)[C@@H](O)[C@@H](O[C@H]6[C@H](O)[C@@H](O)[C@@H](O[C@H]7[C@H](O)[C@@H](O)[C@@H](O[C@H]8[C@H](O)[C@@H](O)[C@@H](O[C@H]1[C@H](O)[C@H]2O)O[C@@H]8COCC(C)O)O[C@@H]7COCC(C)O)O[C@@H]6COCC(C)O)O[C@@H]5COCC(C)O)O[C@@H]4COCC(C)O)O[C@@H]3COCC(C)O (stereo partly drawn) [HPBCD, hydroxypropyl β-cyclodextrin] | 1.26 | 0 | 0 | 0 | 0 | 0 | 0 | 0 | 0 | 0 | 0 | 0 | 0 | 0 | 0 | 0 | 0 | 0 | 0 | 0 | SI = CC50/EC50 [24]: 0; SI = CC50/EC50 [25]: 0; SI = CC50/EC50 [26]: 0; SI = CC50/EC50 [27]: 0; SI = CC50/EC50 [28]: 0 |
| hydroxypropyl α-cyclodextrin [HPACD] | 0.97 |  |  |  |  |  |  |  |  |  |  |  |  |  |  |  |  |  |  | 0 |  |
| hydroxypropyl γ-cyclodextrin [HPGCD] | 1.39 |  |  |  |  |  |  |  |  |  |  |  |  |  |  |  |  |  |  | 0 | SI = CC50/EC50, value in parenthesis calculated by DNA hybridization ([8]; DNA hybridization): 6.2 |
| α-interferon |  |  |  |  |  |  |  |  |  |  |  |  |  |  |  |  |  |  |  |  | approximate EC90 ([4]; positive antiviral control, no cytotoxicity): ~10 IU/ml |
